Measurements taken from patent publication US9854800B2, “Herbicidal compositions comprising 4-amino-3-chloro-6-(4-chloro-2-fluoro-3-methoxyphenyl)-5-fluoropyridine-2-carboxylic acid or a derivative thereof and chlormequat chloride” (priority 2015, dated 2018).

Tests used:
Format in all cases: in vivo
Conditions in all cases: 21 DAA
[1] = system: HORVS = Hordeum vulgare L. (spring barley); experiment: Post-emergent foliar herbicidal activity, greenhouse: HORVS (crop)
Method: (§1) Seeds of the desired test plant species were planted in Sun Gro MetroMix® 306 planting mixture, which typically has a pH of 6.0 to 6.8 and an organic matter content of about 30 percent, in plastic pots with a surface area of 103.2 square centimeters (cm^2). When required to ensure good germination and healthy plants, a fungicide treatment and/or other chemical or physical treatment was applied. The plants were grown for 7-36 days in a greenhouse with an approximate 14 hour (h) photoperiod which was maintained at about 18° C. during the day and 17° C. during the night. Nutrients and water were added on a regular basis and supplemental lighting was provided with overhead metal halide 1000-Watt lamps as necessary. The plants were employed for testing when they reached the second or third true leaf stage.
(§2) Treatments consisted of the compound of formula (I) and a second herbicide alone (chlormequat). Weighed amounts of the compound of formula (I) were placed in 25 milliliter (mL) glass vials and dissolved in 4 mL of a 97:3 v/v mixture of acetone and DMSO to obtain concentrated stock solutions. Compound requirements are based upon a 12 mL application volume at a rate of 187 liters per hectare (L/ha). Spray solutions of the second herbicide and compound of formula (I) mixtures were prepared by adding the stock solutions to the appropriate amount of dilution solution to form 12 mL spray solution with active ingredients in two-way combinations. Formulated compounds were applied to the plant material with an overhead Mandel track sprayer equipped with 8002E nozzles calibrated to deliver 187 L/ha over an application area of 0.503 square meters (m^2) at a spray height of […] above average plant canopy. Control plants were sprayed in the same manner with the solvent blank.
(§3) The treated plants and control plants were placed in a greenhouse as described above and watered by sub-irrigation to prevent wash-off of the test compounds. After 20-22 days, the condition of the test plants as compared with that of the control plants was determined visually and scored on a scale of 0 to 100 percent where 0 corresponds to no injury and 100 corresponds to complete kill.
(§4) Colby's equation was used to determine the herbicidal effects expected from the mixtures (Colby, S. R. 1967. Calculation of the synergistic and antagonistic response of herbicide combinations. Weeds 15:20-22.) .
(§5) The following equation was used to calculate the expected activity of mixtures containing two active ingredients, A and B: Expected=A+B−(A×B/100)
(§6) A=observed efficacy of active ingredient A at the same concentration as used in the mixture.
(§7) B=observed efficacy of active ingredient B at the same concentration as used in the mixture.

[2] = system: CIRAR = Cirsium arvense (L.) Scop. (Canada thistle); experiment: Post-emergent foliar herbicidal activity, greenhouse: CIRAR
Method: as §1, §2, §3, §4, §5, §6, §7

[3] = system: VIOTR = Viola tricolor L. (wild violet); experiment: Post-emergent foliar herbicidal activity, greenhouse: VIOTR
Method: as §1, §2, §3, §4, §5, §6, §7

[4] = system: SASKR = Salsola tragus L. (Russian thistle); experiment: Post-emergent foliar herbicidal activity, greenhouse: SASKR
Method: as §1, §2, §3, §4, §5, §6, §7

[5] = system: MATCH = Matricaria recutita L. (wild chamomile); experiment: Post-emergent foliar herbicidal activity, greenhouse: MATCH
Method: as §1, §2, §3, §4, §5, §6, §7

[6] = system: STEME = Stellaria media (common chickweed); experiment: Post-emergent foliar herbicidal activity, greenhouse: STEME
Method: as §1, §2, §3, §4, §5, §6, §7

[7] = system: LAMPU = Lamium purpureum L. (purple deadnettle); experiment: Post-emergent foliar herbicidal activity, greenhouse: LAMPU
Method: as §1, §2, §3, §4, §5, §6, §7

[8] = system: GALAP = Galium aparine L. (catchweed bedstraw); experiment: Post-emergent foliar herbicidal activity, greenhouse: GALAP
Method: as §1, §2, §3, §4, §5, §6, §7

[9] = system: CHEAL = Chenpodium album L. (common lambsquarters); experiment: Post-emergent foliar herbicidal activity, greenhouse: CHEAL
Method: as §1, §2, §3, §4, §5, §6, §7

[10] = system: VERPE = Veronica persica Poir. (Persian speedwell); experiment: Post-emergent foliar herbicidal activity, greenhouse: VERPE
Method: as §1, §2, §3, §4, §5, §6, §7

[11] = system: KCHSC = Kochia scoparia (L.) Schrad. (kochia); experiment: Post-emergent foliar herbicidal activity, greenhouse: KCHSC
Method: as §1, §2, §3, §4, §5, §6, §7

[12] = system: TRZAS = Triticum aestivum (spring) (spring wheat); experiment: Post-emergent foliar herbicidal activity, greenhouse: TRZAS (crop)
Method: as §1, §2, §3, §4, §5, §6, §7

[13] = system: BRSNW = Brassica napus napus (winter) (winter rape); experiment: Post-emergent foliar herbicidal activity, greenhouse: BRSNW
Method: as §1, §2, §3, §4, §5, §6, §7

[14] = system: SINAR = Sinapis arvensis L. (wild mustard); experiment: Post-emergent foliar herbicidal activity, greenhouse: SINAR
Method: as §1, §2, §3, §4, §5, §6, §7

[15] = system: PAPRH = Papaver rhoeas L. (common poppy); experiment: Post-emergent foliar herbicidal activity, greenhouse: PAPRH
Method: as §1, §2, §3, §4, §5, §6, §7

[16] = Compound I 0 + Chlormequat Chloride 279 g ai/ha
[17] = Compound I 0 + Chlormequat Chloride 558 g ai/ha
[18] = Compound I 0 + Chlormequat Chloride 1119 g ai/ha
[19] = Compound I 2.5 + Chlormequat Chloride 0 g ai/ha
[20] = Compound I 5 + Chlormequat Chloride 0 g ai/ha
[21] = Compound I 10 + Chlormequat Chloride 0 g ai/ha

## C[N+](C)(C)CCCl.[Cl-] [Chlormequat Chloride, (2-chloroethyl)trimethylammonium chloride]
[1]; [16]
  HORVS Obs: 0%
[1]; [17]
  HORVS Obs: 0%
[2]; [16]
  CIRAR Obs: 5%
[2]; [17]
  CIRAR Obs: 5%
[2]; [18]
  CIRAR Obs: 10%
[3]; [16]
  VIOTR Obs: 0%
[3]; [17]
  VIOTR Obs: 0%
[3]; [18]
  VIOTR Obs: 3%
[4]; [16]
  SASKR Obs: 0%
[4]; [17]
  SASKR Obs: 0%
[4]; [18]
  SASKR Obs: 7%
[5]; [16]
  MATCH Obs: 0%
[5]; [17]
  MATCH Obs: 0%
[5]; [18]
  MATCH Obs: 27%
[6]; [16]
  STEME Obs: 8%
[6]; [17]
  STEME Obs: 8%
[6]; [18]
  STEME Obs: 7%
[7]; [16]
  LAMPU Obs: 15%
[7]; [17]
  LAMPU Obs: 15%
[7]; [18]
  LAMPU Obs: 30%
[8]; [16]
  GALAP Obs: 3%
[8]; [17]
  GALAP Obs: 5%
[8]; [18]
  GALAP Obs: 20%
[9]; [16]
  CHEAL Obs: 0%
[9]; [17]
  CHEAL Obs: 3%
[10]; [16]
  VERPE Obs: 10%
[10]; [17]
  VERPE Obs: 10%
[10]; [18]
  VERPE Obs: 13%
[11]; [16]
  KCHSC Obs: 5%
[11]; [17]
  KCHSC Obs: 5%
[11]; [18]
  KCHSC Obs: 7%
[12]; [16]
  TRZAS Obs: 0%
[12]; [17]
  TRZAS Obs: 8%
[13]; [16]
  BRSNW Obs: 0%
[13]; [17]
  BRSNW Obs: 3%
[13]; [18]
  BRSNW Obs: 5%
[14]; [16]
  SINAR Obs: 8%
[14]; [17]
  SINAR Obs: 15%
[15]; [16]
  PAPRH Obs: 5%
[15]; [17]
  PAPRH Obs: 5%
[15]; [18]
  PAPRH Obs: 7%

## COc1c(Cl)ccc(-c2nc(C(=O)OCc3ccccc3)c(Cl)c(N)c2F)c1F [Compound I, benzyl 4-amino-3-chloro-6-(4-chloro-2-fluoro-3-methoxyphenyl)-5-fluoropyridine-2-carboxylate]
[1]; [19]
  HORVS Obs: 0%
[1]; [20]
  HORVS Obs: 0%
[2]; [19]
  CIRAR Obs: 48%
[2]; [20]
  CIRAR Obs: 39%
[2]; [21]
  CIRAR Obs: 60%
[3]; [19]
  VIOTR Obs: 30%
[3]; [20]
  VIOTR Obs: 20%
[3]; [21]
  VIOTR Obs: 20%
[4]; [19]
  SASKR Obs: 15%
[4]; [20]
  SASKR Obs: 50%
[4]; [21]
  SASKR Obs: 67%
[5]; [19]
  MATCH Obs: 20%
[5]; [20]
  MATCH Obs: 25%
[5]; [21]
  MATCH Obs: 20%
[6]; [19]
  STEME Obs: 25%
[6]; [20]
  STEME Obs: 25%
[6]; [21]
  STEME Obs: 27%
[7]; [19]
  LAMPU Obs: 80%
[7]; [20]
  LAMPU Obs: 86%
[7]; [21]
  LAMPU Obs: 94%
[8]; [19]
  GALAP Obs: 55%
[8]; [20]
  GALAP Obs: 66%
[8]; [21]
  GALAP Obs: 77%
[9]; [19]
  CHEAL Obs: 50%
[9]; [20]
  CHEAL Obs: 58%
[10]; [19]
  VERPE Obs: 20%
[10]; [20]
  VERPE Obs: 17%
[10]; [21]
  VERPE Obs: 23%
[11]; [19]
  KCHSC Obs: 20%
[11]; [20]
  KCHSC Obs: 41%
[11]; [21]
  KCHSC Obs: 62%
[12]; [19]
  TRZAS Obs: 0%
[12]; [20]
  TRZAS Obs: 0%
[13]; [19]
  BRSNW Obs: 18%
[13]; [20]
  BRSNW Obs: 13%
[13]; [21]
  BRSNW Obs: 13%
[14]; [19]
  SINAR Obs: 70%
[14]; [20]
  SINAR Obs: 73%
[15]; [19]
  PAPRH Obs: 48%
[15]; [20]
  PAPRH Obs: 28%
[15]; [21]
  PAPRH Obs: 35%
